According to patent publication US7041810B2, “Alpha-2 adrenergic receptor polymorphisms” (University Of Cincinnati, priority 2000, dated 2006):
Positions count from the first letter of the chain named. Values belong to the compound of their own block, whether it stands above or below them.

Legend:
Lys251 alpha-2AAR [1] = target: T1, Lys251 alpha-2AAR (Homo sapiens, UniProt P08913, N266K); assay: [35S]GTPγS binding, membranes of COS-7 cells coexpressing Giα2; type: biochemical; parameters: expressed in transfected cells; membranes or intact cells; settings: 10 μM agonist
T1 sequence (P08913 16-465 N266K): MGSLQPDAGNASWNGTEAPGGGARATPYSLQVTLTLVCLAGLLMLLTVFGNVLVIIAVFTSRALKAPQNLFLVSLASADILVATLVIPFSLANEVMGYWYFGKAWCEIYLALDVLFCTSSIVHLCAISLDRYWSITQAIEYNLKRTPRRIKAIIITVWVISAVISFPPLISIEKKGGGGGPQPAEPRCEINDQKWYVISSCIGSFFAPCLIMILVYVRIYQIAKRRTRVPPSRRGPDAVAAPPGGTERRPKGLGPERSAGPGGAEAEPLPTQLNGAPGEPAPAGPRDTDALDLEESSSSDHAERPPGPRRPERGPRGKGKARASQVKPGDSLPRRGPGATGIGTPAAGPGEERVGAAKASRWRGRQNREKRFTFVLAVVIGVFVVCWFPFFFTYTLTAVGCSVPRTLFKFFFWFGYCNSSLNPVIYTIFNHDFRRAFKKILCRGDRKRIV
Description: Receptor-G protein interaction was quantitated by [^35S] radiolabeled guanosine-5′-O-(3-thiotriphosphate) ([^35S]GTPγS) binding in COS-7 cells transiently transfected with each alpha-2AAR construct and Giα2. […] Nonspecific binding was measured in the presence of 10 μM GTPγS.

Lys251 alpha-2AAR [2] = target: T1, Lys251 alpha-2AAR
[3] = target: T2, wild-type Asn251 alpha-2AAR (Homo sapiens, UniProt P08913); settings: 5.0 μM forskolin, no agonist
T2 sequence (P08913 16-465): T1 sequence (P08913 16-465 N266K) with K251N

wild-type alpha-2BAR [4] = target: T3, wild-type alpha-2BAR (Homo sapiens, UniProt P18089); assay: Inhibition of forskolin stimulated adenylyl cyclase and desensitization, CHO membranes; type: biochemical; parameters: The human receptor consists of 450 amino acids; expressed in transfected cells
T3 sequence (P18089 1-450): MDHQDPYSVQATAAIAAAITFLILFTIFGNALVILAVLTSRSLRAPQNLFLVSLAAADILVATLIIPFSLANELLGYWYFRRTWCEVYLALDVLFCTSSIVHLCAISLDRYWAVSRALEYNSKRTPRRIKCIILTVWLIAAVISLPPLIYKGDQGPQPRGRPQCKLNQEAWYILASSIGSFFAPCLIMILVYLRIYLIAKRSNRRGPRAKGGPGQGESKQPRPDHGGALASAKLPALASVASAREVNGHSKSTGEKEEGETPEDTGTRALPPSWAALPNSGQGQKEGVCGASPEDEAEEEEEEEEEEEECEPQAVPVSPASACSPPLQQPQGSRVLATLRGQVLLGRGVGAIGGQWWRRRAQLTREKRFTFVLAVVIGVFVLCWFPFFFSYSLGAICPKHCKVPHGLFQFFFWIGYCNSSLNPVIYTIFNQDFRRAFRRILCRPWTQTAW
Description: For desensitization experiments, cells were pretreated for 30 min at 37° with media alone or with media containing 10 μM norepinephrine, placed on ice, and washed five times with cold PBS prior to membrane preparation. Desensitization of alpha-2BAR is manifested by a shift to the right in the dose-response curve for the inhibition of adenylyl cyclase (i.e., increase in EC50) without a significant change in the maximal response (17-19). To quantitate the magnitude of this desensitization, the inhibitory response under control conditions at a submaximal concentration of agonist (the EC50) in the assay was determined from the curve and compared to the response to this same concentration from membranes derived from cells exposed to norepinephrine. This method has been previously validated (26) in several G protein coupled receptor systems.

wild-type alpha-2BAR [5] = target: T3, wild-type alpha-2BAR; settings: read-out: [125I]-aminoclonidine saturation binding KD
wild-type alpha-2CAR [6] = target: T4, wild-type alpha-2CAR (Homo sapiens, UniProt P18825, L239R/R446P/S401I); settings: 10 μM epinephrine, 5 min; 806±140 fmol/mg
T4 sequence (P18825 1-462 L239R/S401I/R446P): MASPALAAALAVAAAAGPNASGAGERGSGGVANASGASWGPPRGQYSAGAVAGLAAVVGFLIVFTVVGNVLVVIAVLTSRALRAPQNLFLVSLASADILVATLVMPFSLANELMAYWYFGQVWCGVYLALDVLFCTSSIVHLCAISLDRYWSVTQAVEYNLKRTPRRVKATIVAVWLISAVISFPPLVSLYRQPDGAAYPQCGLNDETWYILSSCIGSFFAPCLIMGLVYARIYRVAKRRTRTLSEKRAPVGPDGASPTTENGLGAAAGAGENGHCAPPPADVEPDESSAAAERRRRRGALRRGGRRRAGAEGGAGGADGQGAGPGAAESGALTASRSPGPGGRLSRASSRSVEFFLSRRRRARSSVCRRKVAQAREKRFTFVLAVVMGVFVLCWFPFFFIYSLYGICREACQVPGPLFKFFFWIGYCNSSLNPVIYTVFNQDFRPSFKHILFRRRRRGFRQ

wild-type alpha-2CAR [7] = target: T4, wild-type alpha-2CAR; assay: Inhibition of forskolin stimulated adenylyl cyclase, CHO membranes; type: biochemical; parameters: expressed in transfected cells; membranes or intact cells; settings: lower expressing line 565±69 fmol/mg
wild-type alpha-2CAR [8] = target: T4, wild-type alpha-2CAR; settings: 10 μM epinephrine; thrombin 1 unit/ml
wild-type alpha-2CAR [9] = target: T5, wild-type alpha-2CAR (Homo sapiens, UniProt P18825); assay: Inhibition of forskolin stimulated adenylyl cyclase, CHO membranes; type: biochemical
T5 construct: expressed in transfected cells; membranes or intact cells
T5 sequence (P18825 1-462 L239R/S401I/R446P): T4 sequence (P18825 1-462 L239R/S401I/R446P)

Compound: Brc1c(NC2=NCCN2)ccc2nccnc12 [UK 14304]
- enhanced [35S]GTPγS binding for Lys251 as compared to the Asn251 receptor (Lys251 alpha-2AAR [1]): ~40%

Compound: Nc1cc(Cl)c(NC2=NCCN2)c(Cl)c1I [[^125I]-aminoclonidine, aminoclonidine]
- Kd (wild-type alpha-2BAR [5]): 1.33 ± 0.12 nM

Compound: CNC[C@H](O)c1ccc(O)c(O)c1 [epinephrine]
- accumulation of inositol phosphates over basal (wild-type alpha-2CAR [6]): 30±3%
- inhibition of adenylyl cyclase (wild-type alpha-2CAR [7]): 73±2.4%
- MAP kinase stimulation as a percent of the thrombin response (wild-type alpha-2CAR [8]): 128±10.0%

Compound: N=C(N)N/N=C/c1c(Cl)cccc1Cl [guanabenz]
- enhanced [35S]GTPγS binding for Lys251 as compared to the Asn251 receptor (Lys251 alpha-2AAR [1]): 72%

Now from value to compound, other results behind:

- enhanced [35S]GTPγS binding for Lys251 as compared to the Asn251 receptor (Lys251 alpha-2AAR [1]): 45%
Compound: CCN1CCc2nc(N)oc2CC1 [BHT-933]

- Forskolin adenylyl cyclase activity (Lys251 alpha-2AAR [2]; 5.0 μM forskolin, no agonist): 31.6 ± 6.5 pmol/min/mg
- Forskolin adenylyl cyclase activity [3]: 32.7 ± 4.0 pmol/min/mg
Compound: C=C[C@@]1(C)CC(=O)[C@]2(O)[C@@]3(C)[C@@H](O)CCC(C)(C)[C@@H]3[C@H](O)[C@H](OC(C)=O)[C@@]2(C)O1 [Forskolin, forskolin]
- Forskolin adenylyl cyclase activity (wild-type alpha-2BAR [4]; forskolin 5 μM, no agonist): 15.1 ± 0.9 pmol/min/mg

- enhanced [35S]GTPγS binding for Lys251 as compared to the Asn251 receptor (Lys251 alpha-2AAR [1]): ~40%
- EC50 (wild-type alpha-2CAR [9]): 219 ± 13.7 nM
Compound: NC[C@H](O)c1ccc(O)c(O)c1 [norepinephrine]
- EC50 (wild-type alpha-2BAR [4]): 7.9 ± 2.1 nM
- Max Inhibition (%) of forskolin stimulated adenylyl cyclase (wild-type alpha-2BAR [4]; 626±54 fmol/mg): 28.5 ± 1.6%
- Desensitization (%) (wild-type alpha-2BAR [4]; after 10 μM norepinephrine 30 min): ~54%
- Submax inhibition (%) Ctrl (wild-type alpha-2BAR [4]; agonist at the EC50 of control membranes, cells pretreated with media alone): 16.5 ± 3.9%
- Submax inhibition (%) NE (wild-type alpha-2BAR [4]; same agonist concentration, cells pretreated with 10 μM norepinephrine 30 min): 7.6 ± 2.3 %

- augmented function of Lys251 compared to the Asn251 receptor (Lys251 alpha-2AAR [2]; adenylyl cyclase inhibition): ~40%
Compound: Cc1cc(C(C)(C)C)c(O)c(C)c1CC1=NCCN1 [oxymetazoline]
